Test results reported in patent US12269816B2, “Benzothiophene compound, preparation method therefor and use thereof” (SICHUAN KELUN-BIOTECH BIOPHARMACEUTICAL CO., LTD., priority 2019, dated 2025).

What was measured:
[1] = tested on: STING and its downstream proteins TBK1 and IRF3 in Raw264.7 cells; test: Western blotting of phosphorylation of STING signal pathway proteins in mouse Raw264.7 cells; assay type: cell-based; settings: 3 hours, protein blotting, FIGS. 6-7, result in words
Text: (§1) In this experiment, the changes in the phosphorylation levels of STING and its downstream proteins TBK1 (TANK-binding kinase 1) and IRF3 (interferon regulatory factor 3) were detected by protein blotting to evaluate the agonistic effect of the test compounds on the STING signal pathway at the cellular level.
The Raw264.7 cells in the logarithmic phase were centrifuged, and resuspended in a cell culture solution to a density of 1.6×10^6 cells/mL. The cell suspension was inoculated into a 6-well cell culture plate (Corning) at 1 mL/well. The compound to be tested was diluted with a cell culture solution to 2× working solution concentration (control compounds 1 and 2: 60 μM; compound 8: 0.6 μM, 6 μM, and 60 μM; compounds 2, 4 and 6: 6 μM, 20 μM, and 60 μM). 1 mL of the diluted solution of the compound was added into a 6-well plate (1 mL of the culture solution containing 2% DMSO was added into the negative control well). The plate was placed in a cell incubator, and incubated for 3 hours. After the incubation, the cells were collected by centrifugation, lysed with 60 μL cell lysis buffer (CST) for 30 minutes, and centrifuged at 12000 rpm for 15 minutes. The supernatant was collected to determine the protein concentration, and then an appropriate amount of 5× protein loading buffer was added. The mixture was heated at 95° C. for 10 minutes to prepare a protein electrophoresis sample. Finally, protein blotting was performed to detect the phosphorylation level of the corresponding protein. The primary antibodies used in the protein blotting were purchased from CST: STING (D2P2F) rabbit mAb, Phospho-STING (Ser365) rabbit mAb, Phospho-IRF3 (Ser396) (D601M) rabbit mAb, IRF3 (D83B9) rabbit mAb, TBK1/NAK (D1B4) rabbit mAb, Phospho-TBK1/NAK (Ser172) (D52C2) XPV rabbit mAb, GAPDH (D16H11) rabbit mAb; and the secondary antibody horseradish peroxidase-conjugated goat anti-rabbit IgG (H+L) was purchased from Zsgb-bio.

[2] = tested on: STING and its downstream proteins TBK1 and IRF3 in THP-1 cells; test: Western blotting of phosphorylation of STING signal pathway proteins in human THP-1 cells; assay type: cell-based; settings: 3 hours, protein blotting, FIGS. 1-5, result in words
Text: as §1
The THP-1 cells in the logarithmic phase were centrifuged, and resuspended in a cell culture solution to a density of […]. The cell suspension was inoculated into a 12-well cell culture plate (Corning) at 0.5 mL/well. The compound to be tested was diluted with a cell culture solution to 2× working solution concentration (control compounds 1 and 2: 60 μM; compounds 1 and 3: 0.6 μM, 6 μM, and 60 μM; compounds 2, 4, 6 and 8: 6 μM, 20 μM, and 60 μM). 0.5 mL of the diluted solution of the compound was added into a 12-well plate (500 μl of the culture solution containing 2% DMSO was added into the negative control well), and the plate was incubated in a cell incubator for 3 hours. After the incubation, the cells were collected by centrifugation, lysed with 60 μL cell lysis buffer (CST) for 30 minutes, and centrifuged at 12,000 rpm for 15 minutes. The supernatant was collected to determine the protein concentration, and then an appropriate amount of 5× protein loading buffer was added. The mixture was heated at 95° C. for 10 minutes to prepare a protein electrophoresis sample. Finally protein blotting was performed to detect the phosphorylation level of the corresponding protein. The primary antibodies used in the protein blotting were purchased from CST: STING (D2P2F) rabbit mAb, Phospho-STING (Ser366) rabbit mAb, Phospho-IRF3 (Ser396) (D601M) rabbit mAb, IRF3 (D83B9) rabbit mAb, TBK1/NAK (D1B4) rabbit mAb, Phospho-TBK1/NAK (Ser172) (D52C2) XP® rabbit mAb, and GAPDH (D16H11) rabbit mAb; and the secondary antibody horseradish peroxidase-conjugated goat anti-rabbit IgG (H+L) was purchased from Zsgb-bio.

[3] = tested on: STING-mediated interferon (IFN) signal reporter gene in THP1-Blue™ ISG cells; test: STING-mediated interferon (IFN) signal SEAP reporter gene assay in THP1-Blue ISG cells; assay type: cell-based, human
Text: In this experiment, the activity of the SEAP (secreted embryonic alkaline phosphatase) reporter gene regulated by the IFN regulatory factor (interferon regulatory factor) was detected in the THP1-Blue™ ISG cells (InvivoGen) to evaluate the agonistic effect of the compounds to be tested on the STING-mediated IFN signal pathway at the cellular level.
The THP1-Blue™ ISG cells (InvivoGen) in the logarithmic phase were centrifuged, and resuspended in a cell culture solution to a density of 2×10^6 cells/ml. The cell suspension was inoculated in a 96-well cell culture plate (Corning) at 50 μL/well. The mother liquor of the compound to be tested was gradiently diluted with a cell culture solution to obtain a 2× working concentration diluted solution (control compounds 1 and 2 were diluted at a 3-fold gradient: 200, 66.67, 22.22, 7.41, 2.47, 0.82, 0.27 and 0 μM; compounds 1, 2, 4, 6, 8, and 23 were diluted at a 8-fold gradient: 60, 7.5, 0.94, 0.12, 0.015, 0.0018, 0.00023 and 0 μM; and compounds 3 and 5 were diluted at a 10-fold gradient: 10, 1, 0.1, 0.01, 0.001, 0.0001, 0.00001 and 0 μM). The 2× working concentration diluted solution of the compound was added into a 96-well plate (50 μl of the culture solution containing 2% DMSO was added into the negative control well) at 50 μL/well. The culture plate was then placed in a cell incubator, and incubated for 16 h. After the cell incubation, 10 μL of the cell culture supernatant was transferred to a 96-well plate, and a QUANTI-Blue (InvivoGen) solution was added at 90 μL/well. The cells were incubated at 37° C. for 3 h. The absorbance at 620 nm (OD620nm) was read with a microplate reader.
In the table, EC50 refers to the concentration of a compound when ODM620nm value generated by stimulation of the compound reaches half of Emax; and Emax refers to the highest OD620nm value generated by stimulation of the compound.

## COc1cc2cc(C(=O)CCC(=O)O)sc2cc1OCCCOc1cc2sc(C(=O)N(C)CCC(=O)O)cc2cc1OC [Compound 2, 4-(6-(3-((2-((2-carboxyethyl)(methyl)carbamoyl)-5-methoxybenzo[b]thiophen-6-yl)oxy)propoxy)-5-methoxybenzo[b]thiophen-2-yl)-4-oxobutanoic acid]
[1]
  agonistic effect on the phosphorylation levels of STING, TBK1 and IRF3: strong agonistic effects
[2]
  agonistic effect on the phosphorylation levels of STING, TBK1 and IRF3: strong agonistic effects
[3]; Homo sapiens, 16 h incubation, SEAP reporter read at OD620nm
  EC50: 457 nM
[3]; highest OD620nm value generated by stimulation of the compound, 16 h
  Emax (OD620nm): 1.82 OD620nm
[3]; result in words
  agonistic effect on the STING-mediated Interferon (IFN) signal pathway: strong agonistic effects
